Literature values, collected in patent US11304900B1, “Transparent colloidal vitamin supplement blend” (Quicksilver Scientific, Inc., priority 2017, dated 2022).
Read-outs that look alike come from different tables or passages of the source.

How the values were obtained:
[1] = not given; remark: listed apart in the source
[2] = in vivo

Row | SMILES | mean peak plasma level (IV administration of 50 g/day) [mg/dL] | increase of plasma concentration (daily intake increased from 200 mg/day to 2,500 mg/day) [%] | highest blood serum level observed (oral administration of pharmacological doses) [mg/dL] | plasma concentration (oral daily intake 200 mg/day) [mg/dL] | plasma concentration (oral daily intake 2,500 mg/day) [mg/dL] | blood serum concentration at which antiviral effect has been demonstrated [1] [mg/dL] | change in serum levels ([2]; iv) | change in blood serum magnesium concentration ([2]; po)
1 | O=C1O[C@H]([C@@H](O)CO)C(O)=C1O [Vitamin C, ascorbic acid] | 80 | 25 | 9.3 | 1.2 | 1.5 | 10 to 15 | – | –
2 | [Mg+2] [magnesium] | – | – | – | – | – | – | double or triple | little or no change
